Drawing on PubChem BioAssay (NCI), this text covers GI50 and TGI for 14 compounds.

Holding throughout (test): DTP human tumour cell line panel, 48 h
In experiment [1] the test system is COLO 205 colon.
Experiment [2] concerns NCI-H460 lung.
Experiment [3] concerns SNB-19 CNS.
For experiment [4], the system named is M14 melanoma.
Experiment [5] deals with SF-539 CNS.
Experiment [6] relates to SF-268 CNS.
Experiment [7] deals with OVCAR-4 ovarian.
The test system of experiment [8] is K-562 leukemia.
Experiment [9] relates to ACHN renal.
The subject of experiment [10] is HCC-2998 colon.

SMILES strings stand for the structures.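 Protocol summary: plate cells (96-well), add compound at 5 concentrations, incubate 48 h, interpolate endpoints linearly. GI50: concentration for 50% inhibition of growth. TGI: concentration producing complete growth inhibition.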

On to `Cc1ccc(-c2cc3c4c(nc5ccccc53)C(=O)c3cccnc3-c4n2)cc1`, for which the GI50 in experiment [1] was 16.3 µM; in experiment [2] it was 3.14 µM; in experiment [3], 13.2 µM; in [4], 4.37 µM; in [5] it was 6.68 µM; in experiment [6], 17 µM. For the same compound, the GI50 was 15.6 µM in experiment [7], 0.39 µM in experiment [8], 22.5 µM in experiment [9] and 17.2 µM in experiment [10]. The total growth inhibition concentration (TGI) in [1] amounted to 30.1 µM; in experiment [2] it was 16.4 µM; in experiment [3], 60.9 µM; in experiment [4], 16.5 µM; in [5], 26.7 µM; in experiment [6] it was 61.1 µM. The TGI in experiment [7] was 73.8 µM; in experiment [8], over 100 µM; in [9], 80.6 µM; in experiment [10], 33.2 µM.

In the case of `CN1CCC2(CC1)NC(=O)c1c(c3ccc(Cl)c(Cl)c3n1C)C2C#N` (stereo not given), the GI50 is 1.8 µM in experiment [1]; 2.75 µM in experiment [2]; 12.8 µM in experiment [3]; 2.73 µM in experiment [4]; 5.51 µM in experiment [5]; 4.54 µM in experiment [6]. Also, the GI50 is 11.7 µM in experiment [7], 5.76 µM in experiment [8], 5.75 µM in experiment [9] and 1.89 µM in [10]. The TGI in experiment [1] came to 3.83 µM; in [2], 14.3 µM; in experiment [3], 27.4 µM; in experiment [4], 8.5 µM; in [5], 17.9 µM; in [6], 15.2 µM. Moreover, the TGI in experiment [7] was over 56 µM; in [8], over 100 µM; in [9], 19.4 µM; in experiment [10] it was 3.95 µM.

As to `NC1CCCCC1N.O=[Se]([O-])[O-].[Pt+4]` (stereo not given), the GI50 in experiment [1] was 1.19 µM; in experiment [2], 0.205 µM; in experiment [3], 1.32 µM; in experiment [4] it was 2.51 µM; in experiment [5], 1.18 µM; in [6], 0.549 µM. Besides, the GI50 was 2.63 µM in experiment [7], 0.413 µM in experiment [8], 0.653 µM in [9] and 2.98 µM in experiment [10]. In addition, the concentration for total growth inhibition (TGI) in experiment [1] was 17.5 µM; in [2], 5.15 µM; in experiment [3], over 100 µM; in experiment [4], over 52.2 µM; in experiment [5], 20.6 µM; in experiment [6], over 76.8 µM. Also, the TGI in experiment [7] was over 100 µM; in experiment [8], over 49.8 µM; in [9], over 52.4 µM; in [10], 11.1 µM.

On to `CC1(C)CC[C@]2(C(=O)O)CC[C@]3(C)C(=CC[C@@H]4[C@@]5(C)C[C@H](O)[C@H](O)[C@@](C)(C(=O)O)[C@@H]5CC[C@]43C)[C@@H]2C1`, for which the TGI in experiment [1], in experiment [2], in [3], in [4], in experiment [5] and in [6] was over 100 µM throughout. In addition, the TGI in [7], in [8], in [9] and in experiment [10] was over 100 µM each time.

Take `O=[N+]([O-])c1cc([N+](=O)[O-])c(/C=C/c2ccc(Cl)c(Cl)c2)cc1/C=C/c1ccc(Cl)c(Cl)c1`: the TGI was 38.6 µM in [1]; over 100 µM in experiment [2]; 66.5 µM in [3]; 52 µM in experiment [4]; 51.5 µM in experiment [5]; 75.8 µM in experiment [6]. The TGI in [7] was over 100 µM; in experiment [8], 78.8 µM; in [9] it was 81.9 µM; in experiment [10], over 100 µM.

Turning to `O=C(NCc1cccnc1)C1COc2cc(-c3cc(=O)c4ccccc4o3)ccc2O1` (stereo not given), the TGI in experiment [1] is over 100 µM; in experiment [2], over 100 µM; in [3], over 67.2 µM; in experiment [4], over 100 µM; in experiment [5], 16.4 µM; in experiment [6] it was over 55.2 µM. The TGI in [7] was over 100 µM; in experiment [8], over 100 µM; in [9] it was over 72.9 µM; in experiment [10] it was over 100 µM.

Turning to `CCc1nc(N)nc(N)c1-c1ccc2nnn(O)c2c1`, the TGI in experiment [1], in [2], in [3], in experiment [4], in experiment [5] and in [6] was over 100 µM each time. Moreover, the TGI in experiment [7], in experiment [8], in experiment [9] and in experiment [10] was over 100 µM throughout.

For `Cc1cc(C)n(-c2ccnc3cc(Cl)ccc23)n1`, the TGI in [1], in experiment [2], in experiment [3], in [4], in experiment [5] and in experiment [6] was over 100 µM each time. The TGI in [7], in [8], in experiment [9] and in [10] was over 100 µM in each case.

Take `O=C(O)C(C(=O)O)P(=S)(S)c1ccccc1` (stereo not given): the concentration for total growth inhibition (TGI) in experiment [1], in experiment [2], in experiment [3], in experiment [4], in [5] and in [6] was over 100 µM throughout. The TGI in experiment [7], in experiment [8], in [9] and in [10] was over 100 µM in each case.

For the compound `Cc1ccc2c(c1)c(Sc1ccc(C(=O)NO)cc1)c1n2CN(C)CC1`, the GI50 in experiment [1] is 1.82 µM; in [2] it was 2.05 µM; in experiment [3] it was 2.13 µM; in experiment [4], 1.72 µM; in experiment [5], 1.4 µM; in [6], 1.6 µM. Besides, the GI50 in [7] was 1.51 µM; in [8] it was 3.17 µM; in [9], 2.68 µM; in [10], 1.64 µM. Moreover, the TGI in experiment [1] was determined as 4.11 µM; in experiment [2] it was 6.16 µM; in [3] it was 7.27 µM; in [4], 3.79 µM; in experiment [5] it was 2.92 µM; in [6], 3.7 µM. Besides, the total growth inhibition concentration (TGI) in [7] is 9.04 µM; in [8], 11.9 µM; in experiment [9] it was 8.63 µM; in experiment [10], 3.67 µM.

As for `N=C(N)SCc1c2ccccc2c(CSC(=N)N)c2ccccc12`, the GI50 in experiment [1] is 2.75 µM; in [2], 1.08 µM; in experiment [3], 11.5 µM; in experiment [4], 10.9 µM; in experiment [5], 5.11 µM; in experiment [6], 4.32 µM. For the same compound, the GI50 in experiment [7] was 11.7 µM; in experiment [8] it was 3.51 µM; in experiment [9] it was 3.99 µM; in experiment [10], 11.3 µM. The TGI in experiment [1] is 14.1 µM; in experiment [2], 15.3 µM; in [3] it was 25 µM; in [4], 25.5 µM; in [5] it was 19.4 µM; in experiment [6] it was 26 µM. Moreover, the TGI in [7] was 35.5 µM; in experiment [8], 17.9 µM; in experiment [9], 18.5 µM; in [10], 23.7 µM.

Consider `O=C(/C(=C/c1ccc([N+](=O)[O-])cc1)SCc1ccc(Cl)cc1)c1ccc(F)cc1`, for which the GI50 in experiment [1] is 3.8 µM; in experiment [2], 5.79 µM; in experiment [3], 1.87 µM; in experiment [4] it was 3.38 µM; in [5], 3.47 µM; in [6] it was 4.95 µM. In addition, the GI50 in experiment [7] is 3.11 µM; in experiment [8], 2.45 µM; in experiment [9] it was 1.76 µM; in experiment [10] it was 2.39 µM. Besides, the TGI in experiment [1] worked out at 14.9 µM; in experiment [2], 24.7 µM; in experiment [3] it was 4.11 µM; in [4] it was 16.1 µM; in experiment [5] it was 12.6 µM; in [6], 21.6 µM. Besides, the TGI in experiment [7] was 13.9 µM; in [8], over 100 µM; in [9] it was 3.33 µM; in experiment [10], 5.41 µM.

As for `C[C@@H](NC(=O)/C(C#N)=C/c1ccc([N+](=O)[O-])cc1)c1ccccc1`, the GI50 in experiment [1] was 2 µM; in experiment [2] it was 2.58 µM; in experiment [3] it was 2.52 µM; in experiment [4], 2.05 µM; in [5], 1.7 µM; in experiment [6] it was 3.69 µM. Besides, the GI50 was 2.15 µM in [7], 2.75 µM in experiment [8], 1.76 µM in experiment [9] and 1.87 µM in [10]. The TGI was 3.71 µM in experiment [1]; 6.95 µM in [2]; 7.31 µM in experiment [3]; 4.42 µM in experiment [4]; 3.37 µM in experiment [5]; 13.4 µM in experiment [6]. Further, the concentration for total growth inhibition (TGI) in experiment [7] turned out to be 5.95 µM; in experiment [8], 14 µM; in experiment [9], 3.29 µM; in [10], 3.53 µM.

For the compound `CC1(Br)CC2OC3(Br)C=CC(C)(O)C2(CC1=O)C3(C)C` (stereo not given), the TGI in experiment [1], in experiment [2], in experiment [3], in experiment [4], in experiment [5] and in [6] was over 100 µM in each case. Also, the TGI is over 100 µM in experiment [7], over 29.8 µM in experiment [8], over 100 µM in experiment [9] and over 100 µM in experiment [10].
